Experimental findings from paper PMC4854315, “Discovery of a novel allosteric inhibitor-binding site in ERK5: comparison with the canonical kinase hinge ATP-binding site” (Acta Crystallographica. Section D, Structural Biology, 2016) are described below.

What all share (assay): Z'-LYTE kinase panel
What all share (type): biochemical

One experiment deals with T1, SGK2 (Homo sapiens, UniProt Q9HBY8).
T1 construct: purchased ThermoFisher (SelectScreen, Z'-LYTE)
T1 sequence (Q9HBY8 1-367): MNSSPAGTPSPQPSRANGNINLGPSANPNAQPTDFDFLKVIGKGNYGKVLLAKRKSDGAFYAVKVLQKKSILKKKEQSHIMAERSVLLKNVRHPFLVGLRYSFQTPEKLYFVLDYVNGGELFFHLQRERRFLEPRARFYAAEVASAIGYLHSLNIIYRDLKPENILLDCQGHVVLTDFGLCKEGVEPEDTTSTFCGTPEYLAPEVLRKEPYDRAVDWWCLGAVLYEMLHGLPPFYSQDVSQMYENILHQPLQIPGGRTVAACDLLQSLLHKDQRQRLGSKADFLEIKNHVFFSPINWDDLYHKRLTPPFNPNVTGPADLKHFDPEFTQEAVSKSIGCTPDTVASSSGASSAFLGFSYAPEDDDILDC
In short, it runs like this: (§1)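 Compounds were profiled across a 225-kinase standard panel. Each kinase was run in the standard Z′-LYTE assay and percentage inhibition was recorded at a compound concentration of 10 µM.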

The next experiment has as its target T2, JAK3 (Homo sapiens, UniProt P52333).
T2 construct: purchased ThermoFisher (SelectScreen, Z'-LYTE)
T2 sequence (P52333 1-1124): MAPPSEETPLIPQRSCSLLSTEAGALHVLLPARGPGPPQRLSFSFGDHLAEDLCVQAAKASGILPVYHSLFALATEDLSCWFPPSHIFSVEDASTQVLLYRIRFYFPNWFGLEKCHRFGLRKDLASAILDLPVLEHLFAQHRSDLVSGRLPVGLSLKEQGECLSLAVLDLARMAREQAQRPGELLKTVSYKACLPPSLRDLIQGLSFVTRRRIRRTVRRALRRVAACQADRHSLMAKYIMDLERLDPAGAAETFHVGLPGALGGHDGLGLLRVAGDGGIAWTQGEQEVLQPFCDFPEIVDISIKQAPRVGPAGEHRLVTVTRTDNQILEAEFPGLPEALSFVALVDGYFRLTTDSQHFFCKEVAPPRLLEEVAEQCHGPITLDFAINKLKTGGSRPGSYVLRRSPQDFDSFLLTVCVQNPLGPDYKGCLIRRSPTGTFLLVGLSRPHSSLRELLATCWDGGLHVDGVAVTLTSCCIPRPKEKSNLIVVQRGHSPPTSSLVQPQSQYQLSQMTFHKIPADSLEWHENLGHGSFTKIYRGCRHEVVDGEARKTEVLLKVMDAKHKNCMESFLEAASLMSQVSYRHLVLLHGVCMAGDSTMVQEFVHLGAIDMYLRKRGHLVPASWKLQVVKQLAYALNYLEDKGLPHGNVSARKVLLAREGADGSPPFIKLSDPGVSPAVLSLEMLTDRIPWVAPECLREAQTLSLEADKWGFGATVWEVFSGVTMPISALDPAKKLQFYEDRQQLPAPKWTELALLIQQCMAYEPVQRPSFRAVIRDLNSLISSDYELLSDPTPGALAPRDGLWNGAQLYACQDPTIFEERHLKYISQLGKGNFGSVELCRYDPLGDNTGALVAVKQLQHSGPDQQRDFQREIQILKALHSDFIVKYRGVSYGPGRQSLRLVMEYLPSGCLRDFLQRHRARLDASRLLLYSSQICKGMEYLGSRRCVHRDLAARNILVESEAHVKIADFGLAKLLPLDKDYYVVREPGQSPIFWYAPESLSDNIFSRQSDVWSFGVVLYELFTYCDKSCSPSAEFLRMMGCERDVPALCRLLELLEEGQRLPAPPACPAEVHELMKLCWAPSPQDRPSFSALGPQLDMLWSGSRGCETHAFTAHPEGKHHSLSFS
In short, it runs like this:
as §1

Another experiment deals with T3, ERBB4 (HER4) (Homo sapiens, UniProt Q15303).
T3 construct: purchased ThermoFisher (SelectScreen, Z'-LYTE)
T3 sequence (Q15303 26-1308): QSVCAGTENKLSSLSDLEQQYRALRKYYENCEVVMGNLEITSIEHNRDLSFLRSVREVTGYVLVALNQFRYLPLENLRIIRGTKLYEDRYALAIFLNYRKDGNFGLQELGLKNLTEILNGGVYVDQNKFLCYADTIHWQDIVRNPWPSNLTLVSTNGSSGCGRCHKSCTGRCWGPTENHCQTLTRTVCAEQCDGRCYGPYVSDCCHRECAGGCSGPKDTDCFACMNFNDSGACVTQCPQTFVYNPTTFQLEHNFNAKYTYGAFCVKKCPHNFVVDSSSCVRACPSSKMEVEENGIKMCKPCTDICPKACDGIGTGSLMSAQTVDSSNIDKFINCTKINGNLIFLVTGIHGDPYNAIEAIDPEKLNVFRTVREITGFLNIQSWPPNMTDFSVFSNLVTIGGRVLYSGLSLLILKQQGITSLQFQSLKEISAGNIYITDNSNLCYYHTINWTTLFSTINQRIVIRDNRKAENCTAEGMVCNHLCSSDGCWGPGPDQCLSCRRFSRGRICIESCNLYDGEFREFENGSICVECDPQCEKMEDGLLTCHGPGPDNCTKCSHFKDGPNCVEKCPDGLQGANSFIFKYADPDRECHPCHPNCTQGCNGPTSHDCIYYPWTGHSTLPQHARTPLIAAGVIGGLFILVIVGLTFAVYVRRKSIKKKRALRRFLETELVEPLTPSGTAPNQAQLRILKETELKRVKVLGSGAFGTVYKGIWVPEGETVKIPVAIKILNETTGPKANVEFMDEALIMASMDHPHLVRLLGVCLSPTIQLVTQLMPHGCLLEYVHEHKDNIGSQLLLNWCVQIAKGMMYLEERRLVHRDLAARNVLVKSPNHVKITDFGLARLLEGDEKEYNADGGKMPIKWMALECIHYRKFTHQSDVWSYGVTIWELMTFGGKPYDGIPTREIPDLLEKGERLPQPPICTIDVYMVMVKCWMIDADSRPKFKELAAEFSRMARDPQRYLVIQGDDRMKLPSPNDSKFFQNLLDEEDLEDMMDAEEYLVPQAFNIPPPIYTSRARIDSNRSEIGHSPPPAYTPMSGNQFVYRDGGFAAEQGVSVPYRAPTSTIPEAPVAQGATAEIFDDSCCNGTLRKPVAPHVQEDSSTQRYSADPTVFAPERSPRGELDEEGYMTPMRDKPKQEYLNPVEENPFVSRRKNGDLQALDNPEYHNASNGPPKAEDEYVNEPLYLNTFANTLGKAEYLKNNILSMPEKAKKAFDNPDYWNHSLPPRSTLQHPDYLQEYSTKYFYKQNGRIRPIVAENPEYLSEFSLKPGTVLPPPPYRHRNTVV
In short, it runs like this: as §1

Another experiment concerns the target T4, DNA-PK (Homo sapiens, UniProt P78527).
T4 construct: purchased ThermoFisher (SelectScreen, Z'-LYTE)
An outline of the steps: as §1

In a further experiment the target is T5, SNF1LK2 (Homo sapiens, UniProt Q9H0K1).
T5 construct: purchased ThermoFisher (SelectScreen, Z'-LYTE)
T5 sequence (Q9H0K1 whole entry): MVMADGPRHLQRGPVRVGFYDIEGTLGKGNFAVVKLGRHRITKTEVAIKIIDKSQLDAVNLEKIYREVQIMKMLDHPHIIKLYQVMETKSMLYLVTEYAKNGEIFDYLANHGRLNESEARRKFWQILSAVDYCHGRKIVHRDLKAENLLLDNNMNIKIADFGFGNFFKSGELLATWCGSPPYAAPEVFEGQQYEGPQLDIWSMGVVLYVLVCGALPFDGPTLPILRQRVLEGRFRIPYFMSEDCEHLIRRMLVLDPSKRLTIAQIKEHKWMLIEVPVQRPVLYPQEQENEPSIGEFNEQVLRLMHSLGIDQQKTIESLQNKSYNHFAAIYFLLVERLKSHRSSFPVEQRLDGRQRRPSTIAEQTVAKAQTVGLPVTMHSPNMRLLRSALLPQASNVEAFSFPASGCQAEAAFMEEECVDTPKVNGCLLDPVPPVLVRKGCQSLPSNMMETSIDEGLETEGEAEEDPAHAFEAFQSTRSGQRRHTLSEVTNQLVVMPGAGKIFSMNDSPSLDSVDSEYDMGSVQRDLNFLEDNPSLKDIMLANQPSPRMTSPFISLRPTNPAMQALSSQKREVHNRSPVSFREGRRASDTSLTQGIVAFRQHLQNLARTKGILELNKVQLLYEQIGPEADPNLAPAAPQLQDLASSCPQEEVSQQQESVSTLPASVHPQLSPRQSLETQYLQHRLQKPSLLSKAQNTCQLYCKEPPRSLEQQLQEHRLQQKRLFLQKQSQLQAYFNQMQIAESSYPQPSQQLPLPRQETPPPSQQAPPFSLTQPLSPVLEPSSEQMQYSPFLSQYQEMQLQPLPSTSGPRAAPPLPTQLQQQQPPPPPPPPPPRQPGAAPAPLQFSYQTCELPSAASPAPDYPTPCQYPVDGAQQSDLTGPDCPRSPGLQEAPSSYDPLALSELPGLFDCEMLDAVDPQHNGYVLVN
An outline of the steps:
as §1

In a further experiment the target is T6, MERTK (cMER) (Homo sapiens, UniProt Q12866).
T6 construct: purchased ThermoFisher (SelectScreen, Z'-LYTE)
T6 sequence (Q12866 21-999): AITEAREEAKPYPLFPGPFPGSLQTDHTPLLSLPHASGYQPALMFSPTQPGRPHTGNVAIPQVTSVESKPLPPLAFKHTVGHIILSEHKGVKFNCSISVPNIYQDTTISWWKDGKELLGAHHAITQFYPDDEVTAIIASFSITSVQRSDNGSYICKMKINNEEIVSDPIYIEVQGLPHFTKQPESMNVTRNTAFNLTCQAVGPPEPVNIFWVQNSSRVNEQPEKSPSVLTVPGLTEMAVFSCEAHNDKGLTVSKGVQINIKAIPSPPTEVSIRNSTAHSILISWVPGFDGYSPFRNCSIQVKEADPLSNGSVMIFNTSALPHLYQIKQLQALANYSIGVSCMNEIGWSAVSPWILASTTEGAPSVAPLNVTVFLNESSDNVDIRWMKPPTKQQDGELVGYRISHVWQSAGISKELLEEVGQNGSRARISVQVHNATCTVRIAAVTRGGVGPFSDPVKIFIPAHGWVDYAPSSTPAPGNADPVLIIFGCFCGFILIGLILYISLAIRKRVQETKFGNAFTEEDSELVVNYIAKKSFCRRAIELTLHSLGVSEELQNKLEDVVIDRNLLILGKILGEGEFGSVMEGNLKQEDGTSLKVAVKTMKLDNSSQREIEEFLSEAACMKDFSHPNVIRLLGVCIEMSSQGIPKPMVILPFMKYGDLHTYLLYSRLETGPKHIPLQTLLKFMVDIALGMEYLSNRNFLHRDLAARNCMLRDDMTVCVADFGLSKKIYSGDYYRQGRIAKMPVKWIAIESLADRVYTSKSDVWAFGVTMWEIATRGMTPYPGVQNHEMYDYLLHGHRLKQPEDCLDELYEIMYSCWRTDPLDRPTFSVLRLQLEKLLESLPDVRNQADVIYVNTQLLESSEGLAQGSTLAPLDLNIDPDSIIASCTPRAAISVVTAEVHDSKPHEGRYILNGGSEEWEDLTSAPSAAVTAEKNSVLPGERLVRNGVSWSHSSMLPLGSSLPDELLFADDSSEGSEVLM
An outline of the steps: as §1

A further experiment addresses T7, FRAP1 (mTOR) (Homo sapiens, UniProt P42345).
T7 construct: purchased ThermoFisher (SelectScreen, Z'-LYTE)
In short, it runs like this: as §1

Another experiment deals with T8, ABL1 (Homo sapiens, UniProt P00519).
T8 construct: purchased ThermoFisher (SelectScreen, Z'-LYTE)
T8 sequence (P00519 whole entry): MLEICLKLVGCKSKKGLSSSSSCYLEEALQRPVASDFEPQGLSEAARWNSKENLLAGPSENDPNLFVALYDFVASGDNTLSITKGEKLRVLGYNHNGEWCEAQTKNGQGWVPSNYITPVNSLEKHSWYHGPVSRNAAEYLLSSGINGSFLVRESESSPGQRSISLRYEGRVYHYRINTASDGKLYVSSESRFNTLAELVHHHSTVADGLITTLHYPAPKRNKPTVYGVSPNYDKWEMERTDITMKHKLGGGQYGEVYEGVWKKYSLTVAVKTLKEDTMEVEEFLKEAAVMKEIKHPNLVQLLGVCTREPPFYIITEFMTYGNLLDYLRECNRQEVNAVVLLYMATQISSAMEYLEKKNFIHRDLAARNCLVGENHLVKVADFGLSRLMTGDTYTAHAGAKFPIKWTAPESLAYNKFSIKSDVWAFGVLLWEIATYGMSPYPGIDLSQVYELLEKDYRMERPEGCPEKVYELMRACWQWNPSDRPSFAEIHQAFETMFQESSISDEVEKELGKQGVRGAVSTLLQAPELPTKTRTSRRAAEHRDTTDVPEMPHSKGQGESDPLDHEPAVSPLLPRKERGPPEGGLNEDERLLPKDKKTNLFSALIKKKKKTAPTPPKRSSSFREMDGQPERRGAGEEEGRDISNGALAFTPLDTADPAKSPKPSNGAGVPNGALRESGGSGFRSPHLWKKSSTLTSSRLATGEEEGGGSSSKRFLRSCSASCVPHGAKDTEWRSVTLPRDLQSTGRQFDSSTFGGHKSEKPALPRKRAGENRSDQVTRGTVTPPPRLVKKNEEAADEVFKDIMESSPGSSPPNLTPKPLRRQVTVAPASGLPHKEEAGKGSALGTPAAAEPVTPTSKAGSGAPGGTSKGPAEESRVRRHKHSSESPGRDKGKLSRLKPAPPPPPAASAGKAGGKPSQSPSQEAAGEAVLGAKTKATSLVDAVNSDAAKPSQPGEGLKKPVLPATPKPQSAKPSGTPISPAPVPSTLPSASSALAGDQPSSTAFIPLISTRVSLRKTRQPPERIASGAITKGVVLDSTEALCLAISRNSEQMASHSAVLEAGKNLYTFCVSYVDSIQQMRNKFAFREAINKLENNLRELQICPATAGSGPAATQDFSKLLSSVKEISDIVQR
In short, it runs like this:
as §1

A further experiment deals with T9, LYN A (Homo sapiens, UniProt P07948).
T9 construct: purchased ThermoFisher (SelectScreen, Z'-LYTE)
T9 sequence (P07948 whole entry): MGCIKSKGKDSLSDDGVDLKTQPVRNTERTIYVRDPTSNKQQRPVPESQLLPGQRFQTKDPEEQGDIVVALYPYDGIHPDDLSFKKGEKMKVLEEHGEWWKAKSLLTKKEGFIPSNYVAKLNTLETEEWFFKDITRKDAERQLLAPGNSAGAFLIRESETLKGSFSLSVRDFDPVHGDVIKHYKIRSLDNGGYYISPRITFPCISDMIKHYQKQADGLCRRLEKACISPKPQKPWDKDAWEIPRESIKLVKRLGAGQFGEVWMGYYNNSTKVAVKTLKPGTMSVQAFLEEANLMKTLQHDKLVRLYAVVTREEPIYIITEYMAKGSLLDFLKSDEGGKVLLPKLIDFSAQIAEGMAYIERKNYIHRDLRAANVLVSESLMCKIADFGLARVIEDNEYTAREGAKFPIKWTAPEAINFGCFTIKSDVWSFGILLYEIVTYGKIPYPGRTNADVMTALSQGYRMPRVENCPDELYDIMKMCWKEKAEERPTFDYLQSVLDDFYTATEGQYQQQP
In short, it runs like this: as §1

The target of another experiment is T10, BLK (Homo sapiens, UniProt P51451).
T10 construct: purchased ThermoFisher (SelectScreen, Z'-LYTE)
T10 sequence (P51451 whole entry): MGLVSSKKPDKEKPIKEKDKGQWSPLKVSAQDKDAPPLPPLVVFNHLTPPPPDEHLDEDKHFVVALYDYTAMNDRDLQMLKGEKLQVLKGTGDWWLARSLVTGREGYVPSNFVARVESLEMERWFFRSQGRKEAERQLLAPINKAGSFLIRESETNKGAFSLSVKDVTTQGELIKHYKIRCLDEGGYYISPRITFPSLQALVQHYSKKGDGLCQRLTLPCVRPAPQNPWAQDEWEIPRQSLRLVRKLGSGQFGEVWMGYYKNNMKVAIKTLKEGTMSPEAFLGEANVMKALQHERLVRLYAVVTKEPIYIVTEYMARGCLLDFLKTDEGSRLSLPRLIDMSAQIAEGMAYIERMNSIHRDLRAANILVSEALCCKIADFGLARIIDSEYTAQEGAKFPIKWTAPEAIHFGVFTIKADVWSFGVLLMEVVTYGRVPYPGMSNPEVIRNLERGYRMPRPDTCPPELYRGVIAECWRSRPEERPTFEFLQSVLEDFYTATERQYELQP
In short, it runs like this: as §1

With `Cc1ncc(-c2nc(Nc3ccc(C(=O)NCCN4CCCCC4)cc3)ncc2F)n1C(C)C` [Compound 3], the inhibition (usually the change of the read-out against control, counted positive when it falls) at 10 µM was determined as 66% on SGK2; 88% at JAK3; 17% against ERBB4 (HER4); 33% at DNA-PK; 88% against SNF1LK2; 99% against MERTK (cMER). For the same molecule, the inhibition at 10 µM against FRAP1 (mTOR) worked out at 44%; against ABL1, 91%; at LYN A, 88%; against BLK it was 65%.
Regarding `Cc1cc(Nc2nc(N)nn2C(=O)NC(C)C)ccc1Cl` [Compound 5], the inhibition at 10 µM against SGK2 was -20%; on JAK3 it was 45%; on ERBB4 (HER4), 7%; on DNA-PK, 13%; on SNF1LK2 it was 74%; against MERTK (cMER) it was 43%. Also, the inhibition at 10 µM is -12% on FRAP1 (mTOR), 57% on ABL1, 25% on LYN A and 22% on BLK.
On to “XMD8-92 [Compound 2, reference compound]”, for which, at SGK2 (10 µM compound, ATP Km app), the “SGK2 % Inhibition” value came to 68%. Also, the “JAK3 % Inhibition” value on JAK3 (10 µM compound, ATP Km app) was 80%. In addition, the “ERBB4 (HER4) % Inhibition” value at ERBB4 (HER4) (10 µM compound, ATP Km app) worked out at 16%. The “DNA-PK % Inhibition” value at DNA-PK (10 µM compound, ATP Km app) stood at 38%. At SNF1LK2 (10 µM compound, ATP Km app), the “SNF1LK2 % Inhibition” value is listed as 62%. For the same molecule, the “MERTK (cMER) % Inhibition” value at MERTK (cMER) (10 µM compound, ATP Km app) worked out at 0.252%. At FRAP1 (mTOR) (10 µM compound, ATP Km app), the “FRAP1 (mTOR) % Inhibition” value is recorded as -15%. Further, the “ABL1 % Inhibition” value at ABL1 (10 µM compound, ATP Km app) turned out to be 72%. In addition, the “LYN A % Inhibition” value on LYN A (10 µM compound, ATP Km app) was 66%. Also, the “BLK % Inhibition” value at BLK (10 µM compound, ATP Km app) is listed as 38%.
